From ChEMBL document CHEMBL4732132, “Stereoselective synthesis of novel 2'-(S)-CCG-IV analogues as potent NMDA receptor agonists” (Eur J Med Chem, 2021)
Calls of active or inactive are those of the source. The calls are words filed in the database; no cut-off is given here.

Tests used:
[1] = Agonist activity at recombinant rat GluN1a/GluN2A receptor expressed in Xenopus laevis oocytes assessed as increase in glycine/glutamate-induced channel current at -40 mV holding potential by two-electrode voltage clamp method; type: cell-based, Oocyte
[2] = Agonist activity at recombinant rat GluN1a/GluN2B receptor expressed in Xenopus laevis oocytes assessed as increase in glycine/glutamate-induced channel current at -40 mV holding potential by two-electrode voltage clamp method; type: cell-based, Oocyte
[3] = Agonist activity at recombinant rat GluN1a/GluN2C receptor expressed in Xenopus laevis oocytes assessed as increase in glycine/glutamate-induced channel current at -40 mV holding potential by two-electrode voltage clamp method; type: cell-based, Oocyte
[4] = Agonist activity at recombinant rat GluN1a/GluN2D receptor expressed in Xenopus laevis oocytes assessed as increase in glycine/glutamate-induced channel current at -40 mV holding potential by two-electrode voltage clamp method; type: cell-based, Oocyte
Oocyte [5] = assay: Agonist activity at recombinant rat GluN1a/GluN2A receptor expressed in Xenopus laevis oocytes assessed as increase in glycine/glutamate-induced channel current at -40 mV holding potential by two-electrode voltage clamp method relative to glutamate; type: cell-based
[6] = Agonist activity at recombinant rat GluN1a/GluN2B receptor expressed in Xenopus laevis oocytes assessed as increase in glycine/glutamate-induced channel current at -40 mV holding potential by two-electrode voltage clamp method relative to control; type: cell-based, Oocyte; details: for Emax: Rattus norvegicus, Oocyte, read-out: Efficacy
Oocyte [7] = assay: Agonist activity at recombinant rat GluN1a/GluN2C receptor expressed in Xenopus laevis oocytes assessed as increase in glycine/glutamate-induced channel current at -40 mV holding potential by two-electrode voltage clamp method relative to control; type: cell-based
[8] = Agonist activity at recombinant rat GluN1a/GluN2D receptor expressed in Xenopus laevis oocytes assessed as increase in glycine/glutamate-induced channel current at -40 mV holding potential by two-electrode voltage clamp method relative to control; type: cell-based, Oocyte; details: for Emax: Rattus norvegicus, Oocyte, read-out: Efficacy
[9] = Rattus norvegicus, Oocyte, read-out: EC50

**Q.** For `C[C@]1(C(=O)O)C[C@H]1[C@H](N)C(=O)O`, which EC50 [1, 9] is on record?
**A.** 260 nM

**Q.** What about the EC50 [2, 9] of the same compound?
**A.** 80 nM

**Q.** And the EC50 [3, 9]?
**A.** 110 nM

**Q.** What about the EC50 [4, 9] of the same compound?
**A.** 30 nM

**Q.** What about the Efficacy (Oocyte [5]; filed as agonist) of the same compound?
**A.** 99%

**Q.** What about the Emax [6] of the same compound?
**A.** 123%

**Q.** And the Efficacy (Oocyte [7]; filed as agonist)?
**A.** 90%

**Q.** And the Emax [8]?
**A.** 111%

**Q.** For `[N-]=[N+]=NC[C@]1(C(=O)O)C[C@H]1[C@H](N)C(=O)O`, which EC50 [1, 9] is on record?
**A.** 4500 nM

**Q.** And the EC50 [2, 9]?
**A.** 900 nM

**Q.** And the EC50 [3, 9]?
**A.** 2700 nM

**Q.** And the EC50 [4, 9]?
**A.** 400 nM

**Q.** And the Efficacy (Oocyte [5]; filed as agonist)?
**A.** 81.7%

**Q.** And the Emax [6]?
**A.** 92.6%

**Q.** What about the Efficacy (Oocyte [7]; filed as agonist) of the same compound?
**A.** 62.7%

**Q.** What about the Emax [8] of the same compound?
**A.** 76.9%

**Q.** Which EC50 [1, 9] does the source give for `CCCC[C@]1(C(=O)O)C[C@H]1[C@H](N)C(=O)O` here?
**A.** 30000 nM

**Q.** What about the EC50 [2, 9] of the same compound?
**A.** 10000 nM

**Q.** And the EC50 [3, 9]?
**A.** 16000 nM

**Q.** What about the EC50 [4, 9] of the same compound?
**A.** 3300 nM

**Q.** And the Efficacy (Oocyte [5]; filed as agonist)?
**A.** 65%

**Q.** What about the Emax [6] of the same compound?
**A.** 107%

**Q.** And the Efficacy (Oocyte [7]; filed as agonist)?
**A.** 85%

**Q.** And the Emax [8]?
**A.** 94%

**Q.** Which EC50 [1, 9] does the source give for `C=CCOC[C@]1(C(=O)O)C[C@H]1[C@H](N)C(=O)O` here?
**A.** 3700 nM

**Q.** What about the EC50 [2, 9] of the same compound?
**A.** 1500 nM

**Q.** And the EC50 [3, 9]?
**A.** 2600 nM

**Q.** And the EC50 [4, 9]?
**A.** 700 nM

**Q.** What about the Efficacy (Oocyte [5]; filed as agonist) of the same compound?
**A.** 73.9%

**Q.** What about the Emax [6] of the same compound?
**A.** 111%

**Q.** What about the Efficacy (Oocyte [7]; filed as agonist) of the same compound?
**A.** 84.9%

**Q.** What about the Emax [8] of the same compound?
**A.** 98.7%

**Q.** With `N[C@H](C(=O)O)[C@@H]1C[C@]1(CS)C(=O)O` as the compound, how does the EC50 [1, 9] read?
**A.** 4800 nM

**Q.** And the EC50 [2, 9]?
**A.** 1000 nM

**Q.** And the EC50 [3, 9]?
**A.** 2500 nM

**Q.** And the EC50 [4, 9]?
**A.** 300 nM

**Q.** What about the Efficacy (Oocyte [5]; filed as agonist) of the same compound?
**A.** 87%

**Q.** And the Emax [6]?
**A.** 103%

**Q.** And the Efficacy (Oocyte [7]; filed as agonist)?
**A.** 86%

**Q.** And the Emax [8]?
**A.** 93%

**Q.** Which results are given for `N[C@H](C(=O)O)[C@@H]1C[C@]1(CO)C(=O)O`?
**A.** EC50 [1, 9]: 3000 nM; EC50 [2, 9]: 1100 nM; EC50 [3, 9]: 1900 nM; EC50 [4, 9]: 400 nM; Efficacy (Oocyte [5]; filed as agonist): 91%; Emax [6]: 116%; Efficacy (Oocyte [7]; filed as agonist): 98.2%; Emax [8]: 104%

**Q.** Which EC50 ([1]; oocyte) does the source give for `N[C@H](C(=O)O)[C@@H]1C[C@]1(COCc1ccccc1)C(=O)O` here?
**A.** Not Active

**Q.** And the EC50 ([2]; oocyte)?
**A.** Not Active

**Q.** And the EC50 ([3]; oocyte)?
**A.** Not Active

**Q.** What about the EC50 ([4]; oocyte) of the same compound?
**A.** Not Active

**Q.** What about the Efficacy (Oocyte [5]) of the same compound?
**A.** inactive

**Q.** What about the Efficacy ([6]; rat, oocyte) of the same compound?
**A.** Not Active

**Q.** What about the Efficacy (Oocyte [7]) of the same compound?
**A.** inactive

**Q.** And the Efficacy ([8]; rat, oocyte)?
**A.** Not Active
